In paper PMC10454913, “Neurohypophysial and paracrine vasopressinergic signaling regulates aquaporin trafficking to hydrate marine teleost oocytes” (Frontiers in Endocrinology, 2023):
Ends that are not written are not given here.

Key:
[1] = test system: seabream Avpr2aa; assay: Activation of seabream Avpr2aa in transfected HEK293T cells (pCRE-luc / pSRE-luc reporters, Fluo-4 AM Ca2+); format: cell-based, gilthead seabream (Sparus aurata); conditions: for effect on Avpr2aa activation: antagonist 10^-12 to 10^-5 M before 10^-8 M Avp
[2] = target: seabream Avpr1aa (Sparus aurata, UniProt R9X0I6); assay: Activation of seabream Avpr1aa in transfected HEK293T cells (pCRE-luc / pSRE-luc reporters, Fluo-4 AM Ca2+); format: cell-based, gilthead seabream (Sparus aurata); conditions: for IC50: antagonist 1 h before 10^-8 M Avp, HEK293T, read-out: IC50, inhibition of Avpr1aa activation
[3] = target: seabream Oxtrb (Sparus aurata, UniProt R9WVY7); assay: Activation of seabream Oxtrb in transfected HEK293T cells (pCRE-luc / pSRE-luc reporters, Fluo-4 AM Ca2+); format: cell-based, gilthead seabream (Sparus aurata); conditions: for effect on Oxtrb activation: antagonist 10^-12 to 10^-5 M before 10^-8 M Oxt
[4] = test system: seabream ovarian follicles; assay: In vitro incubation of isolated seabream ovarian follicles (immunostaining, 3H2O uptake, co-immunoprecipitation); format: cell-based, gilthead seabream (Sparus aurata); conditions: for Avp-mediated increase in phosphorylation of Aqp1ab1 and Aqp1ab2 and binding of Aqp1ab2 to YwhazLb: 10 µM inhibitor plus 10 µM Avp; for Avp-induced differential localization of Aqp1ab1 and Aqp1ab2 in the oocyte microvilli: 10 µM inhibitor preincubated prior to 10 µM Avp
Method: To investigate the physiological significance of the Avp regulation of the […] channel trafficking in seabream oocytes, we determined the dynamics of the subcellular localization of endogenous Aqp1aa, Aqp1ab1, and Aqp1ab2, and their interactions with YwhazLa and -zLb proteins, after Avp treatment in vitro, using the Aqp1ab1- and Aqp1ab2-specific antisera and commercial mammalian YWHAZ antibodies specific for seabream YwhazLa/b or -zLb ([12]). For this, we incubated isolated seabream vitellogenic ovarian follicles with Avp, in the presence or absence of the seabream Avpr1aa and Avpr2aa antagonist TLV or the PKA inhibitor H89, while control follicles were exposed to DMSO vehicle alone ( Figure 8 ).
In other experiments, groups of fully-grown postvitellogenic ovarian follicles (n = 10), manually isolated from the ovary, were incubated with 10 µM Avp in the same culture medium as above, in the presence or absence of 10 µM of the receptor antagonist TLV, or with 0.1% DMSO (controls) for 6 h at 18°C. After incubation, follicles were fixed for immunofluorescence microscopy, frozen in liquid nitrogen and stored at -80°C for further protein extraction, or processed for water uptake assays using radiolabeled water as previously described ([12]).
Isolated ovarian follicles were processed for immunofluorescence microscopy as previously described ([65], [66]). Control sections were incubated with antibodies (1:400 dilution) preadsorbed with the corresponding peptides used for immunization (for aquaporin antibodies), or with the Avp or Oxt synthetic peptides. Secondary antibodies were sheep anti-rabbit IgG Cy3 (Merck #C2306) or goat anti-chicken IgY Alexa Fluor 488 (Invitrogen #A11039) at a 1:1,000 dilution. Sections were counterstained with DAPI (1:10,000), and mounted with Fluoromount™ Aqueous Mounting Medium (Merck #F4680). Immunofluorescence was observed and documented with a Zeiss Axio Imager Z1/Apotome fluorescent microscope (Carl Zeiss Corp.). Changes in Aqp1ab1 and Aqp1ab2 in the oocyte plasma membrane after Avp treatment were evaluated using the ImageJ software v.1.52o (https://imagej.nih.gov/ij/) as previously described ([12]).
X. laevis oocytes and seabream follicles (n = 10) were homogenized in the lysis buffer from the Pierce™ Crosslink Magnetic IP/Co-IP Kit (Pierce Thermo Fisher Scientific, #88805) with a bouncer on ice, and centrifuged at 14,000 × g for 1 min. An aliquot (10%) of the protein extract was collected as “input” and mixed with 2 × Laemmli sample buffer, whereas the remaining extract was incubated overnight at 4°C under constant agitation with magnetic beads previously coated with anti-Aqp1ab1 or anti-Aqp1ab2 antibodies. For rabbit primary antibodies, the immunoprecipitation was carried out using the kit indicated above, and final eluted proteins in 50 µl of elution buffer were mixed with 4 × Laemmli sample buffer supplemented with protease and phosphatase inhibitors. For chicken antibodies, the immunoprecipitation was performed using Dynabeads™ M-280 Tosylactivated (Invitrogen Thermo Fisher Scientific, #14203) following the manufacturer’s instructions. The input and immunoprecipitated samples were immunoblotted as indicated above.

[5] = test system: X. laevis oocytes expressing the seabream Avpr2aa and Aqp1aa, Aqp1ab1 or Aqp1ab2 plus YwhazLb; assay: Swelling assay (osmotic water permeability, P f) of X. laevis oocytes expressing Avpr2aa and TSA1C aquaporins; format: cell-based
[6] = test system: X. laevis oocytes expressing the seabream Avpr1aa and Aqp1aa, Aqp1ab1 or Aqp1ab2 plus YwhazLb; assay: Swelling assay (osmotic water permeability, P f) of X. laevis oocytes expressing Avpr1aa and TSA1C aquaporins; format: cell-based
[7] = 10 µM Avp, co-immunoprecipitation and immunoblotting

COc1ccc(S(=O)(=O)N2c3ccc(Cl)cc3[C@](O)(c3ccccc3Cl)[C@@H]2C(=O)N2CCC[C@H]2C(N)=O)cc1OC [SR49059]
effect on Avpr2aa activation [1]: inhibited
IC50 [2]: ~1 nM
effect on Oxtrb activation [3]: not affected

COc1cc(OC2CCN(C(C)=O)CC2)ccc1C(=O)N1CCC(N2C(=O)OCc3ccccc32)CC1 [L-371,257, 1-(1-[4-[(N-acetyl-4-piperidinyl)oxy]-2-methoxybenzoyl]piperidin-4-yl)-4H-3,1-benzoxazin-2(1H)-one]
effect on Avpr2aa activation [1]: no effect

Cc1ccccc1C(=O)Nc1ccc(C(=O)N2CCCC(O)c3cc(Cl)ccc32)c(C)c1 (stereo not shown) [TLV, 7-Chloro-5-hydroxy-1-[2-methyl-4-(2-methylbenzoyl-amino)benzoyl]-2,3,4,5-tetrahydro-1H-1-benzazepine]
effect on Avpr2aa activation [1]: inhibited
potency at blocking Avpr2aa relative to SR49059 ([1]; antagonist before 10^-8 M Avp): ~ 10 times more potent
water permeability of follicles (3H2O uptake) in the presence of Avp plus inhibitor ([4]; 10 µM Avp plus 10 µM inhibitor): reduced
Avp-mediated increase in phosphorylation of Aqp1ab1 and Aqp1ab2 and binding of Aqp1ab2 to YwhazLb [4]: blocked
Avp-induced differential localization of Aqp1ab1 and Aqp1ab2 in the oocyte microvilli [4]: prevented
IC50 [2]: ~1 nM
effect on Oxtrb activation [3]: not affected

O=S(=O)(NCCNC/C=C/c1ccc(Br)cc1)c1cccc2cnccc12 [H89]
positive effect of Avp on plasma membrane trafficking of wild-type Aqp1ab1 and Aqp1ab1-S156A [5]: equally abolished
Avp-induced insertion of Aqp1ab1 or Aqp1ab2 into the oocyte plasma membrane / P f increase ([5]; Avpr2aa oocytes, 10 µM inhibitor 1 h before 10 µM Avp): prevented
Avp-mediated increase in phosphorylation of Aqp1ab1 and Aqp1ab2 and binding of Aqp1ab2 to YwhazLb [4]: blocked
Avp-induced differential localization of Aqp1ab1 and Aqp1ab2 in the oocyte microvilli [4]: prevented
water permeability of follicles (3H2O uptake) in the presence of Avp plus inhibitor ([4]; not told): reduced

CN1CCCC1CCn1cc(C2=C(c3c[nH]c4ccccc34)C(=O)NC2=O)c2ccccc21 (stereo not shown) [Bim-II, bisindolylmaleimide II]
Avp-induced inhibition of P f ([6]; Avpr1aa+Aqp1aa oocytes preincubated with 10 µM inhibitor 1 h before 10 µM Avp): prevented

CYIQNCPRG-NH2 (ends and bridges not checked) [Avp]
reduction of P f ([6]; oocytes expressing Avpr1aa + Aqp1aa, 10 µM Avp, 3 h): 80%
oocyte P f triggered by FSK exposure ([6]; oocytes expressing Avpr1aa + Aqp1ab2 (+YwhazLb), 10 µM Avp, 10 µM FSK): did not affect
P f ([5]; oocytes co-expressing Avpr2aa and Aqp1aa, 10 µM Avp): did not change
increase in P f ([5]; oocytes expressing Avpr2aa + Aqp1ab1, 10 µM Avp): ~ 2 fold
increase in P f ([5]; oocytes expressing Avpr2aa + Aqp1ab2+YwhazLb, without FSK pretreatment, 10 µM Avp): ~ 4 fold
EC50 ([1]; Avp on Avpr2aa, HEK293T, read-out: approximate EC50 on cognate receptor): ~10 nM
PKC activation (pSRE-luc) ([1]; HEK293T cells expressing Avpr2aa): not activated
pCRE-induced luciferase activity (cAMP) ([1]; HEK293T cells expressing Avpr2aa, 10^-12 to 10^-5 M): potent dose-dependent response
intracellular Ca2+ concentration ([Ca2+]i) ([1]; HEK293T cells expressing Avpr2aa, Fluo-4 AM): not affected
meiotic maturation or oocyte hydration ([4]; 10 µM Avp, 6 h, 18°C): did not induce
phosphorylation of Aqp1ab1 [4, 7]: more phosphorylated
phosphorylation of Aqp1ab2 [4, 7]: increased
localization of Aqp1aa (follicular epithelium) ([4]; 10 µM Avp, immunofluorescence): did not appear to change
localization of Aqp1ab1 immunoreactivity ([4]; 10 µM Avp, immunofluorescence): more concentrated in the most distal part of the microvilli
localization of Aqp1ab2 channel ([4]; 10 µM Avp, immunofluorescence): localized in a more basal region of the microvilli
water permeability of follicles (3H2O uptake) ([4]; not told): higher
pCRE-mediated luciferase activity (cAMP) ([2]; HEK293T cells expressing Avpr1aa): did not induce measurable increases
pSRE-induced luciferase activity (PKC activation) ([2]; HEK293T cells expressing Avpr1aa, 10^-12 to 10^-5 M, 3 h): concentration-dependent increase
intracellular Ca2+ concentration ([Ca2+]i) ([2]; HEK293T cells expressing Avpr1aa, Fluo-4 AM): concentration-dependent increase
intracellular Ca2+ concentration ([Ca2+]i) ([3]; HEK293T cells expressing Oxtrb, Fluo-4 AM): only a slight increase
